# Data from publication PMC7746945 (Neuro-Oncology, 2020).
# Values joined by “and” are separate entries in the source; they are usually repeats but may differ in a detail not shown here. Equal entries are not always repeated. “Also recorded” adds a separate entry of the source.
# Columns and labels:
# [1] = Olaparib PK in mice bearing intracranial G7 GBM xenografts (mass spectrometry); type: in vivo, CD1 nude mice; settings: 50 mg/kg
# Experimental: (§1) Canine kidney epithelial cells, stably expressing human MDR1 cDNA (Madin-Darby canine kidney type II [MDCKII]–MDR1 cells) or empty vector (MDCKII control), were used to model the intact BBB and determine permeability coefficients of (^14C)-olaparib in the presence of ketoconazole (25 μM). Whole body autoradiography was performed on male pigmented rats after single oral administration of [^14C]-olaparib (15 mg/kg; 5 MBq/kg). For autoradiography studies, animal care and experiments were carried out in accordance with AstraZeneca guidelines, which comply with UK standards. […] Xenograft experiments were performed under the relevant UK Home Office Project Licence and carried out with ethical approval from the University of Glasgow under the Animal (Scientific Procedures) Act 1986 and the EU directive 2010. Mice were maintained in individually ventilated cages with environmental enrichment and following the guidelines of ARRIVE (Animal Research: Reporting of In Vivo Experiments). […] Ratiometric t-test analysis determined SER confidence intervals and P-values. Further details are available in the Supplementary Material.
# (§2) Apparent permeability coefficients were calculated for apical to basolateral (Papp a‒b) and basolateral to apical transport (Papp b‒a) as described in Methods. […] (B) Single oral doses of 15 mg/kg [14C]-olaparib were administered to male pigmented rats that were subsequently culled, sectioned, and subjected to whole body autoradiography at the timepoints shown. Radioactivity was excluded from the central nervous system in all animals at all timepoints. […] Blood, tumor, and contralateral (non tumor bearing) brain were harvested and snap frozen at the time points shown. […] Note different y-axis scales.
# recurrent GBM [2] = assay: Efficacy: progression-free survival at 6 months (RANO); type: in vivo, human; settings: olaparib with TMZ
# Experimental: (§3) Secondary endpoints included PFS at 6 months (PFS-6, assessed radiologically using the RANO criteria) and radiological measurement of BBB permeability and perfusion by diffusion weighted and dynamic contrast-enhanced (DCE) MRI. […] Further details of the imaging protocol are provided in the Supplementary Material. Confidence intervals for PFS data were calculated using the exact binomial distribution.
# recurrent GBM [3] = assay: DCE-MRI of tumor perfusion and permeability before and after olaparib; type: in vivo, human; settings: stage 1 and dose expansion patients, cycle 0
# Experimental: as §3
# The imaging protocol included four pre-contrast spoiled fast field echo (T1-FFE spoiled gradient echo) sequences with different flip angles (2o, 8o, 15o, 16-20o) for calculation of baseline T1 maps allowing estimation of contrast concentration from observed signal changes and a dynamic, contrast enhanced acquisition series with identical acquisition parameters as the 4th variable flip angle baseline T1 measurement (16-20o), consisting of 100-120 volumes with temporal spacing of 5.1-5.5 seconds (s). Gadolinium-based contrast agent (Gd-DTPA-BMA; Omniscan, GE Healthcare, Oslo, Norway) was injected by pressure injector as a 3 ml bolus at 4 ml/s (dose 0.1 mmol/kg) after acquisition of the seventh image volume, followed by saline flush. Data were analysed using the hybrid model [Li, Jackson Mag Res Med 2003] and in-house software. ROI placement was manual and enhancing pixels were identified through significant change in signal intensity following administration of contrast. […]
# [4] = Whole body autoradiography after single oral [14C]-olaparib; type: in vivo, pigmented rats; settings: for radioactivity concentration, Blood / radioactivity concentration, Brain / radioactivity concentration, Choroid plexus / radioactivity concentration, Kidney cortex (outer) / radioactivity concentration, Large intestine mucosa / radioactivity concentration, Liver / radioactivity concentration, Meninges / radioactivity concentration, Pineal body / radioactivity concentration, Plasma / radioactivity concentration, Small intestine mucosa / radioactivity concentration, Spinal cord: rat, oral [14C]-olaparib 15 mg/kg
# Experimental: as §1, §2
# For autoradiography studies, animal care and experiments were carried out in accordance with AstraZeneca guidelines. Male and female pigmented rats and female BALB/c nu/nu mice bearing subcutaneous HCT-116 colorectal carcinoma xenografts were treated with 15 mg/kg [^14C]-olaparib. Animals were culled by asphyxiation, carcasses frozen in hexane and solid carbon dioxide then subjected to whole body autoradiography. Radioactivity concentrations in tissue were quantified from whole-body autoradiograms using a validated image analysis system.
# [5] = of 16 RP2D patients, olaparib with TMZ
structure (smiles),measurement,setting,value
"O=C(c1cc(Cc2n[nH]c(=O)c3ccccc23)ccc1F)N1CCN(C(=O)C2CC2)CC1 [olaparib, 4-[3-(4-cyclopropanecarbonylpiperazine-1-carbonyl)-4-fluorobenzyl]-2H-phthalazin-1-one]",olaparib in contralateral hemisphere,[1]; 5 and 24 hours,undetectable
same,olaparib in tumor specimens,[1]; 5 hours,detectable in one tumor specimen
same,concentration at 2 h,"[1]; CD1 nude, mouse, contralateral (non-tumor bearing) brain, oral, contralateral (non-tumor bearing) cerebral hemisphere olaparib concentration, median, 50 mg/kg oral gavage",84 nM
same,concentration at 2 h,"[1]; CD1 nude, mouse, contralateral (non-tumor bearing) brain, oral, contralateral (non-tumor bearing) cerebral hemisphere olaparib concentration, range, 50 mg/kg oral gavage",53 to 114 nM
same,concentration at 2 h,"[1]; CD1 nude, mouse, plasma, oral, plasma olaparib level, median, 50 mg/kg oral gavage",1590 nM
same,concentration at 5 h,"[1]; CD1 nude, mouse, plasma, oral, plasma olaparib level, median, 50 mg/kg oral gavage, 5 hours",230 nM
same,concentration at 2 h,"[1]; CD1 nude, mouse, plasma, oral, plasma olaparib level, range, 50 mg/kg oral gavage",773 to 2830 nM
same,concentration at 2 h,"[1]; CD1 nude, mouse, tumor, po, tumor olaparib concentration, median, intracranial G7 xenograft, 50 mg/kg oral gavage",347 nM
same,concentration at 2 h,"[1]; CD1 nude, mouse, tumor, po, tumor olaparib concentration, range, intracranial G7 xenograft, 50 mg/kg oral gavage, 4 mice",110 to 2780 nM
same,patients progression free at 6 months (PFS-6),recurrent GBM [2]; evaluable patients,36% and 39%
same,number of patients progression free at 6 months,recurrent GBM [2]; of 36 patients evaluable for efficacy,14
same,patients needing dose reductions for neutropenia (grade 3) and thrombocytopenia (grade 2),"cohort 1, olaparib with TMZ",2
same,DLT,"cohort 3, olaparib with TMZ, one DLT",grade 3 vomiting
same,toxicity and tolerability of schedule,"cohort 4, olaparib with TMZ, one patient","toxic death associated with pancytopenia, septic shock, and renal failure"
same,"grade 2 nausea, patients",[5],1
same,"grade 2 pruritus, patients",[5],1
same,"grade 2 vomiting, patients",[5],1
same,"grade 3–4 anemia, patients",[5],3
same,"grade 3–4 lymphopenia, patients",[5],7
same,"grade 3–4 neutropenia, patients",[5],2
same,"grade 3–4 thrombocytopenia, patients",[5],4
same,patients with grade 3–4 hematological toxicities,[5],7
same,effect on TMZ-related hematological toxicity,olaparib with TMZ,exacerbated
same,"MTD / RP2D, olaparib dose","once daily, days 1–3 per week, with TMZ 75 mg/m^2 daily for 42 days",150 mg
same,changes in perfusion or permeability parameters between baseline and post-olaparib scans,recurrent GBM [3],no significant changes
same,radioactivity in brain or spinal cord (brain penetration),"[4]; male and female rats, single [14C]-olaparib 15 mg/kg, 5 MBq/kg, any timepoint",no brain penetration; also recorded: undetectable
same,"radioactivity concentration, Blood",[4]; 1 hr,2.44 nmol equivalents of olaparib per gram of tissue
same,"radioactivity concentration, Brain",[4]; 1 hr,BLQ
same,"radioactivity concentration, Choroid plexus",[4]; 1 hr,0.618 nmol equivalents of olaparib per gram of tissue
same,"radioactivity concentration, Kidney cortex (outer)",[4]; 1 hr,9.52 nmol equivalents of olaparib per gram of tissue
same,"radioactivity concentration, Large intestine mucosa",[4]; 1 hr,12.1 nmol equivalents of olaparib per gram of tissue
same,"radioactivity concentration, Liver",[4]; 1 hr,112 nmol equivalents of olaparib per gram of tissue
same,"radioactivity concentration, Meninges",[4]; 1 hr,0.847 nmol equivalents of olaparib per gram of tissue
same,"radioactivity concentration, Pineal body",[4]; 1 hr,2.13 nmol equivalents of olaparib per gram of tissue
same,"radioactivity concentration, Plasma",[4]; 1 hr,9.69 nmol equivalents of olaparib per gram of tissue
same,"radioactivity concentration, Small intestine mucosa",[4]; 1 hr,60.5 nmol equivalents of olaparib per gram of tissue
same,"radioactivity concentration, Spinal cord",[4]; 1 hr,BLQ
same,"radioactivity concentration, Blood",[4]; 4 hr,0.729 nmol equivalents of olaparib per gram of tissue
same,"radioactivity concentration, Brain",[4]; 4 hr,BLQ
same,"radioactivity concentration, Choroid plexus",[4]; 4 hr,0.228 nmol equivalents of olaparib per gram of tissue
same,"radioactivity concentration, Kidney cortex (outer)",[4]; 4 hr,3.16 nmol equivalents of olaparib per gram of tissue
same,"radioactivity concentration, Large intestine mucosa",[4]; 4 hr,11.1 nmol equivalents of olaparib per gram of tissue
same,"radioactivity concentration, Liver",[4]; 4 hr,49.3 nmol equivalents of olaparib per gram of tissue
same,"radioactivity concentration, Meninges",[4]; 4 hr,0.500 nmol equivalents of olaparib per gram of tissue
same,"radioactivity concentration, Pineal body",[4]; 4 hr,0.318 nmol equivalents of olaparib per gram of tissue
same,"radioactivity concentration, Plasma",[4]; 4 hr,2.11 nmol equivalents of olaparib per gram of tissue
same,"radioactivity concentration, Small intestine mucosa",[4]; 4 hr,19.1 nmol equivalents of olaparib per gram of tissue
same,"radioactivity concentration, Spinal cord",[4]; 4 hr,BLQ
same,"radioactivity concentration, Blood",[4]; 8 hr,0.171 nmol equivalents of olaparib per gram of tissue
same,"radioactivity concentration, Brain",[4]; 8 hr,BLQ
same,"radioactivity concentration, Choroid plexus",[4]; 8 hr,BLQ
same,"radioactivity concentration, Kidney cortex (outer)",[4]; 8 hr,1.49 nmol equivalents of olaparib per gram of tissue
same,"radioactivity concentration, Large intestine mucosa",[4]; 8 hr,39.8 nmol equivalents of olaparib per gram of tissue
same,"radioactivity concentration, Liver",[4]; 8 hr,14.7 nmol equivalents of olaparib per gram of tissue
same,"radioactivity concentration, Meninges",[4]; 8 hr,BLQ
same,"radioactivity concentration, Pineal body",[4]; 8 hr,0.248 nmol equivalents of olaparib per gram of tissue
same,"radioactivity concentration, Plasma",[4]; 8 hr,0.180 nmol equivalents of olaparib per gram of tissue
same,"radioactivity concentration, Small intestine mucosa",[4]; 8 hr,7.93 nmol equivalents of olaparib per gram of tissue
same,"radioactivity concentration, Spinal cord",[4]; 8 hr,BLQ
same,"radioactivity concentration, Blood",[4]; 24 hr,BLQ^3
same,"radioactivity concentration, Brain",[4]; 24 hr,BLQ
same,"radioactivity concentration, Choroid plexus",[4]; 24 hr,BLQ
same,"radioactivity concentration, Kidney cortex (outer)",[4]; 24 hr,0.248 nmol equivalents of olaparib per gram of tissue
same,"radioactivity concentration, Large intestine mucosa",[4]; 24 hr,2.10 nmol equivalents of olaparib per gram of tissue
same,"radioactivity concentration, Liver",[4]; 24 hr,2.23 nmol equivalents of olaparib per gram of tissue
same,"radioactivity concentration, Meninges",[4]; 24 hr,BLQ
same,"radioactivity concentration, Pineal body",[4]; 24 hr,BLQ
same,"radioactivity concentration, Plasma",[4]; 24 hr,0.046 nmol equivalents of olaparib per gram of tissue
same,"radioactivity concentration, Small intestine mucosa",[4]; 24 hr,1.19 nmol equivalents of olaparib per gram of tissue
same,"radioactivity concentration, Spinal cord",[4]; 24 hr,BLQ
same,"radioactivity concentration, Blood",[4]; 72 hr,BLQ
same,"radioactivity concentration, Brain",[4]; 72 hr,BLQ
same,"radioactivity concentration, Choroid plexus",[4]; 72 hr,BLQ
same,"radioactivity concentration, Kidney cortex (outer)",[4]; 72 hr,0.202 nmol equivalents of olaparib per gram of tissue
same,"radioactivity concentration, Large intestine mucosa",[4]; 72 hr,BLQ
same,"radioactivity concentration, Liver",[4]; 72 hr,0.604 nmol equivalents of olaparib per gram of tissue
same,"radioactivity concentration, Meninges",[4]; 72 hr,BLQ
same,"radioactivity concentration, Pineal body",[4]; 72 hr,BLQ
same,"radioactivity concentration, Plasma",[4]; 72 hr,0.009 nmol equivalents of olaparib per gram of tissue
same,"radioactivity concentration, Small intestine mucosa",[4]; 72 hr,BLQ
same,"radioactivity concentration, Spinal cord",[4]; 72 hr,BLQ
same,"radioactivity concentration, Blood",[4]; 168 hr,BLQ
same,"radioactivity concentration, Brain",[4]; 168 hr,BLQ
same,"radioactivity concentration, Choroid plexus",[4]; 168 hr,BLQ
same,"radioactivity concentration, Kidney cortex (outer)",[4]; 168 hr,BLQ
same,"radioactivity concentration, Large intestine mucosa",[4]; 168 hr,BLQ
same,"radioactivity concentration, Liver",[4]; 168 hr,0.164 nmol equivalents of olaparib per gram of tissue
same,"radioactivity concentration, Meninges",[4]; 168 hr,BLQ
same,"radioactivity concentration, Pineal body",[4]; 168 hr,BLQ
same,"radioactivity concentration, Small intestine mucosa",[4]; 168 hr,BLQ
same,"radioactivity concentration, Spinal cord",[4]; 168 hr,BLQ
